Laboratory results taken from patent publication US12208106B2, “Methods of vitamin D treatment” (priority 2016, dated 2025).

Assays:
[1] = Solubility of calcifediol monohydrate; format: physicochemical
From the text: In one embodiment, calcifediol is synthetically manufactured as calcifediol monohydrate. […] Chemically, calcifediol monohydrate is (3β,5Z,7E)-9,10-secocholesta-5,7,10(19)-triene-3,25-diol monohydrate and its structural formula is: […]

plasma proteins = test: Plasma protein binding of calcifediol; format: in vitro ADME; settings: human, read-out: bound to plasma proteins
Protocol: The pharmacokinetics of […] were assessed in healthy subjects and subjects with CKD Stage 3 or Stage 4. […] Steady-state levels of serum total 25-hydroxyvitamin D were reached after approximately 3 months. Following multiple dose administration of […], the average steady state concentrations of serum total 25-hydroxyvitamin D were 53 ng/mL and 68 ng/mL for doses of 30 mcg and 60 mcg dose group, respectively. With respect to distribution, calcifediol is extensively bound to plasma proteins (>98%). The mean apparent volume of distribution was 8.8 L in healthy subjects following a single oral dose of […], and 30.1 L in subjects with Stage 3 or Stage 4 chronic kidney disease following repeated dosing. With respect to elimination, the mean elimination half-life of calcifediol was approximately 11 days in healthy individuals following a single dose of […], and approximately 25 days in patients with Stage 3 or Stage 4 chronic kidney disease following repeated once daily dosing. With respect to metabolism, production of calcitriol from calcifediol is catalyzed by the 1α-hydroxylase enzyme, CYP27B1, located in the kidney, parathyroid gland, and other tissues. […] Calcitriol suppresses CYP27B1 and upregulates CYP24A1. Excretion of calcifediol occurs primarily through the biliary fecal route. […]

Compound	solubility in alcohol and fatty oils [1]	solubility in water [1]	fraction unbound (plasma proteins)
C=C1CC[C@H](O)C/C1=C/C=C1\CCC[C@]2(C)[C@@H]([C@H](C)CCCC(C)(C)O)CC[C@@H]12 [Calcifediol monohydrate, (3β,5Z,7E)-9,10-secocholesta-5,7,10(19)-triene-3,25-diol monohydrate]	soluble	practically insoluble	–
C=C1CC[C@H](O)C/C1=C/C=C1\CCC[C@]2(C)[C@@H]([C@H](C)CCCC(C)(C)O)CC[C@@H]12 [calcifediol, 25-hydroxyvitamin D3]	–	–	< 0.02
